Measurements taken from the NIST ThermoML archive (doi:10.1021/je900646u).
Numbers after ± are expanded uncertainties.

Details: Crystal; DTA

- Normal melting temperature: 281.00 ± 0.5 °C
SMILES: Nc1ccc(O)c(C(=O)O)c1 [5-aminosalicylic acid]
